According to patent publication USRE47689E1, “Compounds for treating spinal muscular atrophy” (PTC Therapeutics, Inc., priority 2011, dated 2019):
Read-outs that look alike come from different tables or passages of the source.

Key:
[1] = test system: SMN2 minigene (full length SMN2 minigene mRNA containing SMN2 exon 7); experiment: SMN2 minigene mRNA splicing RT-qPCR assay in cultured cells; format: cell-based, human; settings: Homo sapiens, HEK293-H, read-out: EC1.5x for production of full length SMN2 mRNA
Method in brief: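 Full-length SMN2 minigene mRNA (exon 7 included), minigene-specific and not endogenous SMN, quantified by RT-qPCR multiplexed with GAPDH in stably transfected HEK293H cells after 24 h compound exposure at 37° C. Abundance from efficiency-corrected Ct, normalized to GAPDH and vehicle; EC1.5x reported as star bins.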

Smn protein = Smn protein assay in cultured cells (SMN HTRF); format: cell-based, human; settings: 48 hours; for maximum fold (Fold) increase of Smn protein: SMA patient fibroblast cells, 7-point concentration data, fold increase relative to vehicle control (SMN HTRF); for EC1.5x (concentration giving 1.5-fold Smn protein increase): SMA Type 1 patient fibroblast cells (GM03813), 7-point concentration curve, SMN HTRF, concentration producing 1.5 times Smn protein vs DMSO vehicle control, read-out: EC1.5x for Smn protein expression
Method in brief: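 Smn in SMA fibroblast lysates, measured by anti-SMN HTRF after 48 h compound exposure; EC1.5x from fold change over vehicle.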

[2] = HEK293H cells stably transfected with SMN2-A minigene, 24 hours, 7-point concentration curve, 1.5-fold relative to vehicle-treated cells

Compound | EC (1.5-fold) [1, 2] | maximum fold (Fold) increase of Smn protein (Smn protein) | melting point | EC (1.5-fold) ([1]; 24 h) | EC1.5x (concentration giving 1.5-fold Smn protein increase) (Smn protein)
C[C@@H]1CN(c2ccc3cc(-c4nc5ccccc5o4)c(=O)oc3c2)C[C@H](C)N1 [Compound 23, 3-(1,3-benzoxazol-2-yl)-7-[(3R,5S)-3,5-dimethylpiperazin-1-yl]-2H-chromen-2-one] | 1 to 3 µM | * (maximum fold increase of ≤1.2) | 230 to 232 °C |  | 
C[C@@H]1CN(c2ccc3cc(-c4nc5ccccc5s4)c(=O)oc3c2)C[C@H](C)N1 [Compound 24, 3-(1,3-benzothiazol-2-yl)-7-[(3R,5S)-3,5-dimethylpiperazin-1-yl]-2H-chromen-2-one] | 1 to 3 µM | * (maximum fold increase of ≤1.2) | 248 to 252 °C |  | 
C[C@@H]1CN(c2ccc3cc(-c4nc5c(Cl)cccc5s4)c(=O)oc3c2)C[C@H](C)N1 [Compound 25, 3-(4-chloro-1,3-benzothiazol-2-yl)-7-[(3R,5S)-3,5-dimethylpiperazin-1-yl]-2H-chromen-2-one] | 0.3 to 1 µM | * (maximum fold increase of ≤1.2) | 229 to 235 °C |  | 
O=c1oc2cc(N3CCNCC3)ccc2cc1-c1cccc(F)c1 [Compound 26, 3-(3-fluorophenyl)-7-(piperazin-1-yl)-2H-chromen-2-one] |  | * (maximum fold increase of ≤1.2) | 148 to 150 °C | 1 to 3 µM | 
O=c1oc2cc(N3CCNCC3)ccc2cc1-c1ccncc1 [Compound 27, 7-(piperazin-1-yl)-3-(pyridin-4-yl)-2H-chromen-2-one] |  | * (maximum fold increase of ≤1.2) | 212 to 214 °C | 1 to 3 µM | 
C[C@@H]1CN(c2ccc3cc(C(=O)Nc4ccccc4)c(=O)oc3c2)C[C@H](C)N1 [Compound 30, 7-[(3R,5S)-3,5-dimethylpiperazin-1-yl]-2-oxo-N-phenyl-2H-chromene-3-carboxamide] | 1 to 3 µM | * (maximum fold increase of ≤1.2) | 231 to 233 °C |  | 
Cc1cccc2oc(-c3cc4ccc(N5C[C@@H](C)N[C@@H](C)C5)cc4oc3=O)nc12 [Compound 31, 7-[(3R,5S)-3,5-dimethylpiperazin-1-yl]-3-(4-methyl-1,3-benzoxazol-2-yl)-2H-chromen-2-one] | 3 to 30 µM | * (maximum fold increase of ≤1.2) | 243 to 245 °C |  | 
CC(C)NCCCc1ccc2cc(-c3nc4c(Cl)cccc4s3)c(=O)oc2c1 [Compound 36, 3-(4-chloro-1,3-benzothiazol-2-yl)-7-[3-(propan-2-ylamino)propyl]-2H-chromen-2-one] | 1 to 3 µM | * (maximum fold increase of ≤1.2) | 262 to 265 °C |  | 
C[C@@H]1CN(c2ccc3cc(-c4nc5c(F)cccc5o4)c(=O)oc3c2)C[C@H](C)N1 [Compound 39, 7-[(3R,5S)-3,5-dimethylpiperazin-1-yl]-3-(4-fluoro-1,3-benzoxazol-2-yl)-2H-chromen-2-one] | 0.3 to 1 µM | *** (fold increase between >1.35 and ≤1.5) | 242 to 243 °C |  | 3000 to 10000 nM
O=C(Oc1ccc2cc(-c3nc4ccccc4s3)c(=O)oc2c1)N1CCNCC1 [Compound 41, 3-(1,3-benzothiazol-2-yl)-2-oxo-2H-chromen-7-yl piperazine-1-carboxylate] |  | * (maximum fold increase of ≤1.2) | 221 to 225 °C | 1 to 3 µM | 
Cn1c(-c2cc3ccc(N4CCN(C(=O)OCc5ccccc5)CC4)cc3oc2=O)nc2ccccc21 [Compound 43, benzyl 4-[3-(1-methyl-1H-benzimidazol-2-yl)-2-oxo-2H-chromen-7-yl]piperazine-1-carboxylate] | 3 to 30 µM | * (maximum fold increase of ≤1.2) | 253 to 254 °C |  | 
CN1CCN(c2ccc3cc(-c4nc(-c5ccccc5)cs4)c(=O)oc3c2)CC1 [Compound 45, 7-(4-methylpiperazin-1-yl)-3-(4-phenyl-1,3-thiazol-2-yl)-2H-chromen-2-one] | 3 to 30 µM | * (maximum fold increase of ≤1.2) | 205 to 210 °C |  | 
CN1CCCN(c2ccc3cc(-c4nc5ccccc5o4)c(=O)oc3c2)CC1 [Compound 47, 3-(1,3-benzoxazol-2-yl)-7-(4-methyl-1,4-diazepan-1-yl)-2H-chromen-2-one] | 3 to 30 µM | ** (fold increase between >1.2 and ≤1.35) | 170 to 173 °C |  | 
Cc1ccc2nc(-c3cc4ccc(N5CCNCC5)cc4oc3=O)cn2c1 [Compound 51, 3-(6-methylimidazo[1,2-a]pyridin-2-yl)-7-(piperazin-1-yl)-2H-chromen-2-one] | 0.1 to 0.3 µM | ***** (fold increase >1.65) | 229 to 232 °C |  | < 300 nM
O=C(O)C(F)(F)F.O=c1oc2cc(N3CCNCC3)ccc2cc1-c1nc(C(F)(F)F)cs1 [Compound 52, 7-(piperazin-1-yl)-3-[4-(trifluoromethyl)-1,3-thiazol-2-yl]-2H-chromen-2-one trifluoroacetate] | 0.3 to 1 µM | * (maximum fold increase of ≤1.2) | 221 to 229 °C |  | 
CN1CCN(c2ccc3cc(-c4nc(C(F)(F)F)cs4)c(=O)oc3c2)CC1.O=C(O)C(F)(F)F [Compound 53, 7-(4-methylpiperazin-1-yl)-3-[4-(trifluoromethyl)-1,3-thiazol-2-yl]-2H-chromen-2-one trifluoroacetate] | 3 to 30 µM | ** (fold increase between >1.2 and ≤1.35) | 260 to 270 °C |  | 
O=c1oc2cc(O[C@H]3CCNC3)ccc2cc1-c1nc2ccccc2s1 [Compound 54, 3-(1,3-benzothiazol-2-yl)-7-[(3S)-pyrrolidin-3-yloxy]-2H-chromen-2-one] | 1 to 3 µM | * (maximum fold increase of ≤1.2) | 205 to 211 °C |  | 
O=c1oc2cc(O[C@@H]3CCNC3)ccc2cc1-c1nc2ccccc2s1 [Compound 55, 3-(1,3-benzothiazol-2-yl)-7-[(3R)-pyrrolidin-3-yloxy]-2H-chromen-2-one] | 1 to 3 µM | * (maximum fold increase of ≤1.2) | 205 to 211 °C |  | 
CCN(CC)Cc1ccc2cc(-c3nc4ccccc4s3)c(=O)oc2c1 [Compound 57, 3-(1,3-benzothiazol-2-yl)-7-[(diethylamino)methyl]-2H-chromen-2-one] | 1 to 3 µM | ** (fold increase between >1.2 and ≤1.35) | 116 to 119 °C |  | 
CCN(CC)Cc1ccc2cc(-c3nc4c(Cl)cccc4s3)c(=O)oc2c1 [Compound 58, 3-(4-chloro-1,3-benzothiazol-2-yl)-7-[(diethylamino)methyl]-2H-chromen-2-one] | 1 to 3 µM | **** (fold increase between >1.5 and ≤1.65) | 147 to 151 °C |  | 300 to 1000 nM
O=c1oc2cc(CN3CCCCC3)ccc2cc1-c1nc2ccccc2s1 [Compound 59, 3-(1,3-benzothiazol-2-yl)-7-(piperidin-1-ylmethyl)-2H-chromen-2-one] | 1 to 3 µM | ** (fold increase between >1.2 and ≤1.35) | 201 to 205 °C |  | 
O=c1oc2cc(CN3CCCCC3)ccc2cc1-c1nc2c(Cl)cccc2s1 [Compound 60, 3-(4-chloro-1,3-benzothiazol-2-yl)-7-(piperidin-1-ylmethyl)-2H-chromen-2-one] | 1 to 3 µM | ** (fold increase between >1.2 and ≤1.35) | 191 to 195 °C |  | 
Cc1cccnc1Nc1cc2ccc(N3CCNCC3)cc2oc1=O [Compound 61, 3-[(3-methylpyridin-2-yl)amino]-7-(piperazin-1-yl)-2H-chromen-2-one] | 3 to 30 µM | ** (fold increase between >1.2 and ≤1.35) | 164 to 167 °C |  | 
Cc1ccnc(Nc2cc3ccc(N4CCNCC4)cc3oc2=O)c1 [Compound 62, 3-[(4-methylpyridin-2-yl)amino]-7-(piperazin-1-yl)-2H-chromen-2-one] | 1 to 3 µM | * (maximum fold increase of ≤1.2) | 182 to 185 °C |  | 
Cc1ccc(Nc2cc3ccc(N4CCNCC4)cc3oc2=O)nc1 [Compound 63, 3-[(5-methylpyridin-2-yl)amino]-7-(piperazin-1-yl)-2H-chromen-2-one] | 1 to 3 µM | ** (fold increase between >1.2 and ≤1.35) | 225 to 228 °C |  | 
Cc1cccc(Nc2cc3ccc(N4CCNCC4)cc3oc2=O)n1 [Compound 64, 3-[(6-methylpyridin-2-yl)amino]-7-(piperazin-1-yl)-2H-chromen-2-one] | 1 to 3 µM | * (maximum fold increase of ≤1.2) | 135 to 137 °C |  | 
